Assay results reported in US11564394B2, “Distorted gold (I)-phosphine complexes and methods for use as antifungal agents” (University of Kentucky Research Foundation, priority 2019, dated 2023).
Where two headings read alike, the source gives them in different places.

Columns and labels:
[1] = test system: C. glabrata ATCC 2001 (strain H); details: subcultures exposed to ½ MIC
[2] = test system: C. auris AR Bank # 0390 (strain L) biofilm; type: cell-based, Candida auris; details: treated at 0 h, XTT
[3] = test system: C. auris AR Bank #0384 (strain K)
Method: (§1) The protocol for time-kill assays followed methods previously described with minor modifications.^34,90 Overnight cultures were grown in YEPD medium at 35° C. with shaking at 200 rpm. The overnight cultures were diluted in RPMI 1640 medium to an OD600 of 0.125 (˜x10^6 CFU/mL). Then, 200 μL of cells were added to 4.8 mL of RPMI 1640 medium in sterile culture tubes to afford a fungal cell concentration ˜1×10^5 CFU/mL. Compounds were then added to the fungal cells. […] Treated fungal cultures were incubated in the culture tubes at 35° C. with 200 rpm shaking for 24 h. Samples were aliquoted from the different treatments at regular time points (0, 3, 6, 9, 12, and 24 h) and plated in duplicate onto PDA plates. For each time point, cultures were vortexed, 100 μL of culture was aspirated, and 10-fold serial dilutions were made in sterile ddH2O. From the appropriate dilutions, 100 μL of fungal suspension was spread on agar plates and incubated at 35° C. for 48 h before colony counts were determined. Only plates containing between 30 and 300 colonies were counted, making […] the limit of detection. At 24 h, 50 μL of sterile 2 mM resazurin in phosphate buffered saline (PBS) was added to the treatments and incubated at 35° C. with 200 rpm shaking for 2 h in the dark for visual inspection.

[4] = test system: C. albicans ATCC 10231 (strain B)
Method: as §1

[5] = test system: C. albicans ATCC 10231 (strain B); details: subcultures exposed to ½ MIC
[6] = test system: Candida strains B, H, K and L; details: for mode of killing (time-kill): 1× and 2×MIC, 24 h; for decrease of fungal colony forming units (CFU): by the 3 h time point, no increase over 24 h
Method: The protocol for time-kill assays followed methods previously described with minor modifications.^34,90 Overnight cultures were grown in YEPD medium at 35° C. with shaking at 200 rpm. The overnight cultures were diluted in RPMI 1640 medium to an OD600 of 0.125 (˜x10^6 CFU/mL). Then, 200 μL of cells were added to 4.8 mL of RPMI 1640 medium in sterile culture tubes to afford a fungal cell concentration ˜1×10^5 CFU/mL. Compounds were then added to the fungal cells. […] Treated fungal cultures were incubated in the culture tubes at 35° C. with 200 rpm shaking for 24 h. Samples were aliquoted from the different treatments at regular time points (0, 3, 6, 9, 12, and 24 h) and plated in duplicate onto PDA plates. For each time point, cultures were vortexed, 100 μL of culture was aspirated, and 10-fold serial dilutions were made in sterile ddH2O. From the appropriate dilutions, 100 μL of fungal suspension was spread on agar plates and incubated at 35° C. for 48 h before colony counts were determined. Only plates containing between 30 and 300 colonies were counted, making 30 CFU/mL the limit of detection. At 24 h, 50 μL of sterile 2 mM resazurin in phosphate buffered saline (PBS) was added to the treatments and incubated at 35° C. with 200 rpm shaking for 2 h in the dark for visual inspection.

Candida spp. biofilms = details: biofilms of Candida spp.
Method: For assays with a pre-formed biofilm, 100 μL of fungal cells were aliquoted in a 96-well plate, leaving one column empty for the sterile control. After 24 h incubation at 37° C., visible biofilms had formed in the well. The biofilm was washed three times with 100 μL of PBS. […] Plates were incubated at 37° C. for 24 h. Finally, the plates were washed three times with PBS before adding 100 μL of XTT dye. The XTT was prepared by dissolving XTT at 0.5 mg/mL concentration in sterile PBS. Before adding to a plate, 1 μL of 10 mM menadione in acetone was added to 10 mL of the 0.5 mg/mL solution of XTT. After addition of XTT (containing menadione), the plates were incubated for 3 h at 37° C. in the dark. 80 μL of liquid from each well was transferred to a new plate and then with the plate reader for absorbance at 450 nm. For these experiments, we determined the sessile MIC (SMIC90), which is defined as the compound concentration required to inhibit the metabolic activity of biofilm by 90% compared to the growth control (Table 3). […] Each assay was performed in duplicate.

[7] = test system: murine and human red blood cells (RBCs)
Method: The RBCs were resuspended in PBS to achieve a cell concentration of on the order of 10^7 cells/mL. Compounds were dissolved at concentration of 3.14 mg/mL (200×) in DMSO. Serial double dilutions were made in DMSO. A 1:100 dilution of compound in PBS was added to 100 of RBCs in a 96-well plate (total volume of 200 μL). Compounds were tested in the range of 0.06-15.6 μg/mL in quadruplicate with 0.5% DMSO and ˜5×10^6 RBCs per tube. The RBCs were also treated with 1% Triton-X® (positive control) and PBS (negative control). The RBCs were treated for 30 min at 37° C. and the absorbance was read at 595 nm. Hemolysis is visually observed by a decrease in optical density of the wells (turbid, dark red to transparent pink). Percent hemolysis (FIG. 5A-B) was calculated using this equation after subtraction of the background absorbance ([…]): […]

patients = details: 6 mg daily dose, oral; cited from earlier work
Candida biofilms = details: FDA-approved antifungal agents; cited from earlier work
[8] = test system: C. auris AR Bank #0390 (strain L); test: Time-kill assay; type: cell-based, Candida auris; details: 1×MIC

Molecule | changes in MIC values over fifteen serial passages [1] | Biofilm prevention SMIC90 [2] [µg/mL] | time at which the limit of detection was reached ([3]; concentration not specified (tested at 1× and 2×MIC), failed to reach the limit) [h] | time at which the limit of detection was reached ([4]; 1×MIC, limit of detection 30 CFU/mL) [h] | changes in MIC values over fifteen serial passages [5] | mode of killing (time-kill) [6] | decrease of fungal colony forming units (CFU) [6] [CFU/mL] | activity against biofilms (Candida spp. biofilms) | hemolytic activity ([7]; at 15.6 μg/mL) | tolerability in patients (patients) | SMIC90 (literature) (Candida biofilms) [µg/mL] | hemolysis ([7]; at 7.8 μg/mL) | hemolysis ([7]; at 15.6 μg/mL) [%] | time at which the limit of detection was reached [8] [h] | time at which the limit of detection was reached ([3]; 1×MIC) [h] | time at which the limit of detection was reached ([4]; 2×MIC) [h]
bis-[1,2-bis[(2S,5S)-2,5-dimethylphospholano]benzene]gold(I) [Compound 4] | no significant changes in MIC values | 3.9 | > 24 | 9 | no significant changes in MIC values | fungicidal | 102 | good activity |  |  |  |  |  |  |  | 
CC(=O)OC[C@H]1O[C@@H]([S-])[C@H](OC(C)=O)[C@@H](OC(C)=O)[C@@H]1OC(C)=O.CCP(CC)CC.[Au+] [Auranofin, auranofin, reference compound] |  | >31.3 |  |  |  |  |  |  | no hemolytic activity | well-tolerated |  |  |  |  |  | 
C[C@@H]1[C@H](O)[C@@H](C)/C=C/C=C/C=C/C=C/C=C/C=C/C=C/[C@H](O[C@@H]2O[C@H](C)[C@@H](O)[C@H](N)[C@@H]2O)C[C@@H]2O[C@](O)(C[C@@H](O)C[C@@H](O)[C@H](O)CC[C@@H](O)C[C@@H](O)CC(=O)O[C@H]1C)C[C@H](O)[C@H]2C(=O)O [AmB, amphotericin B, reference compound] |  | 1.95 |  |  |  |  |  |  |  |  | 0.5 to 128 | 30-60% | 100 | 9 |  | 
bis-[1,2-bis[(2R,5R)-2,5-dimethylfphospholano]benzene]gold(1) [Compound 6] | no significant changes in MIC values | 3.9 |  |  | no significant changes in MIC values | fungicidal | 102 | good activity |  |  |  |  |  |  | 6 | 3
